Test system: blood-aqueous barrier of the eye
Assay: Effect of the present compound on the blood-aqueous barrier of the eye (anterior chamber irrigation, carboxy-fluorescein leakage)
Format: in vivo, White rabbits
Details: mean ± S.E.
Method: White rabbits weighing about 2.5 kg were used.
Physiological saline, 0.06, 0.6 and 6 mM solutions of DCE-GS in physiological saline, and a 0.3 mM solution of GSSG (oxidized glutathione)in physiological saline were used as intraocular irrigating solutions and their effects on the blood-aqueous barrier of the eye were evaluated.
Two 23 G needles connected to a polyethylene tube were gently inserted into the anterior chamber of the eye of rabbits under anesthesia (ketamine hydrochloride: xylazine hydrochloride=1:1) and 0.5 ml/kg of 1% carboxy-fluorescein was injected into the auricular vein immediately before irrigation. Using a syringe pump, the intraocular irrigating solution was infused at the rate of 1.5 ml/min. and 25 μl of the outflowing intraocular irrigating solution and the blood were respectively collected at 15-minute intervals over the period of 1 hour and the intensity of florescence of each sample was determined with a spectrophotofluorometer. The collected blood was mixed with 2.5 ml of physiological saline and the mixture was centrifuged at 3000 rpm to separate the supernatant for use as a sample.
The degree (4) of protein leakage was calculated by means of the following equation. (Intensity of fluorescence of irrigating solution/intensity of fluorescence of blood)×100 (%)

N[C@@H](CCC(=O)N[C@@H](CSC(CC(=O)O)C(=O)O)C(=O)NCC(=O)O)C(=O)O (stereo partly drawn) [DCE-GS, S-(α,β-dicarboxyethyl) glutathione]
degree of protein leakage (0.06 mM in physiological saline, irrigation 1.5 ml/min, time 15 min, n 7): 0.16 ± 0.02% | degree of protein leakage (0.06 mM in physiological saline, time 30 min, n 7): 0.23 ± 0.05% | degree of protein leakage (0.06 mM in physiological saline, time 45 min, n 7): 0.11 ± 0.05% | degree of protein leakage (0.06 mM in physiological saline, time 60 min, n 7): 0.18 ± 0.03% | degree of protein leakage (0.6 mM in physiological saline, time 15 min, n 8): 0.13 ± 0.01% | degree of protein leakage (0.6 mM in physiological saline, time 30 min, n 8): 0.19 ± 0.02% | degree of protein leakage (0.6 mM in physiological saline, time 45 min, n 8): 0.15 ± 0.02% | degree of protein leakage (0.6 mM in physiological saline, time 60 min, n 8): 0.13 ± 0.02% | degree of protein leakage (6 mM in physiological saline, time 15 min, n 5): 0.13 ± 0.02% | degree of protein leakage (6 mM in physiological saline, time 30 min, n 5): 0.16 ± 0.02% | degree of protein leakage (6 mM in physiological saline, time 45 min, n 5): 0.22 ± 0.04% | degree of protein leakage (6 mM in physiological saline, time 60 min, n 5): 0.15 ± 0.02%

oxidized glutathione [GSSG, reference compound]
degree of protein leakage (0.3 mM in physiological saline, time 15 min, n 5): 0.22 ± 0.03% | degree of protein leakage (0.3 mM in physiological saline, time 30 min, n 5): 0.17 ± 0.01% | degree of protein leakage (0.3 mM in physiological saline, time 45 min, n 5): 0.15 ± 0.03% | degree of protein leakage (0.3 mM in physiological saline, time 60 min, n 5): 0.15 ± 0.03%
